Structures can show the parent of a compound that is named as a salt.
Tests used:
[1] = Determination of the microsomal half-life / microsomal clearance, human liver microsomes; type: in vitro ADME; conditions: 0.5 μM test substance, 0.25 mg of microsomal protein/mL, NADPH, 37° C.
Experimental: (§1) b) Determination of the Microsomal Half-Life:
(§2) The metabolic stability of the compounds of the invention was determined in the following assay.
(§3) The test substances were incubated in a concentration of 0.5 μM as follows:
(§4) 0.5 μM test substance are preincubated together with liver microsomes from different species (from rat, human or other species) (0.25 mg of microsomal protein/mL) in 0.05 M potassium phosphate buffer of pH 7.4 in microtiter plates at 37° C. for 5 min. The reaction is started by adding NADPH (1 mg/mL). After 0, 5, 10, 15, 20 and 30 min, 50 μl aliquots are removed, and the reaction is immediately stopped and cooled with the same volume of acetonitrile. The samples are frozen until analyzed. The remaining concentration of undegraded test substance is determined by MSMS. The half-life (T½) is determined from the gradient of the signal of test substance/unit time plot, it being possible to calculate the half-life of the test substance, assuming first order kinetics, from the decrease in the concentration of the compound with time. The microsomal clearance (mCl) is calculated from mCl=ln 2/T½/(content of microsomal protein in mg/mL)×1000 [mL/min/mg] (modified from references: Di, The Society for Biomoleculur Screening, 2003, 453-462; Obach, DMD, 1999 vol 27. N 11, 1350-1359).

[2] = Determination of the microsomal half-life / microsomal clearance, rat liver microsomes; type: in vitro ADME; conditions: 0.5 μM test substance, 0.25 mg of microsomal protein/mL, NADPH, 37° C.
Experimental: as §1, §2, §3, §4

[3] = target: PDE10A (UniProt Q9Y233); test: Measurement of PDE activity (HTRF cAMP kit, recombinant PDE10A); type: biochemical, human, rat and mouse; conditions: substrate 20 nM, 60 minutes at 29° C.
Experimental: a) Measurement of PDE Activity
The recombinant PDE proteins are used in in vitro enzymatic reaction for measurement of PDE activity. These recombinant proteins, including PDE10A (human, rat and mouse PDE10) and isoforms of PDEs 1, 3, 4, and 5, were purchased from commercial vendor BPS Bioscience. The enzymatic activity of PDEs was determined by cAMP measurement kit from CisBio (IBA) using HTRF technology.
The PDE enzymatic reaction was carried out in assay buffer (20 mM Tris-HCl pH 7.5, 10 mM MgCl2, 0.1% bovine serum albumin) containing enzyme and substrate. […] The substrate cyclic nucleotide (cAMP or cGMP) concentration used in the assay was 20 nM for PDE10, and 100 nM for other PDEs. The inhibitory effect of compound was determined by incubating various concentration of inhibitor in the enzymatic assay. […] Next, the compound at varying concentration was mixed with PDE enzyme. The reaction was initiated by addition of cyclic nucleotide substrate, and incubated for 60 minutes at 29° C. The reaction was stopped by addition of lysis buffer from the assay kit. The cAMP-d2 and anti-cAMP cryptate in the lysis buffer detected the level of cAMP left from the PDE hydrolysis reaction. […] Thus, IC50 value of inhibitor can be obtained by plotting inhibitor concentration against PDE activity at that concentration.

With `Cn1nc(OCc2cccnc2)c2scc(-c3ccncc3)c2c1=O` [Example 147, 5-methyl-3-(pyridin-4-yl)-7-(pyridin-3-ylmethoxy)thieno[2,3-d]pyridazin-4(5H)-one] the “Human mCl” value [1] was “+ (+: 100-220 μl min^−1 mg^−1)”, the “Rat mCl” value [2] was “+ (+: 100-220 μl min^−1 mg^−1)” and the IC50 [3] was less than 100 nM.

In the case of `COc1ccc(Oc2nn(C)c(=O)c3c(-c4ccncc4)csc23)cc1OC` [Example 91, 7-(3,4-dimethoxyphenoxy)-5-methyl-3-(pyridin-4-yl)thieno[2,3-d]pyridazin-4(5H)-one], the “Human mCl” value [1] is reported as “++ (++: <100 μl min^−1 mg^−1)”, the “Rat mCl” value [2] is reported as “++ (++: <100 μl min^−1 mg^−1)” and the IC50 [3] is reported as less than 100 nM.

For `CC(C)n1nc(-c2ccncc2)c2scc(-c3ccncc3)c2c1=O` [Example 135, 5-(propan-2-yl)-3,7-di(pyridin-4-yl)thieno[2,3-d]pyridazin-4(5H)-one], the “Human mCl” value [1] was “++ (++: <100 μl min^−1 mg^−1)”, the “Rat mCl” value [2] was “+ (+: 100-220 μl min^−1 mg^−1)” and the IC50 [3] was 200 to 500 nM.

For `Cn1nc(OCc2coc3ccccc23)c2scc(-c3ccncc3)c2c1=O` [Example 63, 7-(1-benzofuran-3-ylmethoxy)-5-methyl-3-(pyridin-4-yl)thieno[2,3-d]pyridazin-4(5H)-one], the “Human mCl” value [1] was “++ (++: <100 μl min^−1 mg^−1)”, the “Rat mCl” value [2] was “++ (++: <100 μl min^−1 mg^−1)” and the IC50 [3] was 100 to 200 nM.

With `Cn1nc(OCc2ccco2)c2scc(-c3ccncc3)c2c1=O` [Example 52, 7-(furan-2-ylmethoxy)-5-methyl-3-(pyridin-4-yl)thieno[2,3-d]pyridazin-4(5H)-one] the “Human mCl” value [1] was “++ (++: <100 μl min^−1 mg^−1)”, the “Rat mCl” value [2] was “+ (+: 100-220 μl min^−1 mg^−1)” and the IC50 [3] was 100 to 200 nM.

In the case of `COc1ccc(-c2nn(C)c(=O)c3c(-c4ccncc4)csc23)cc1` [Example 96, 7-(4-methoxyphenyl)-5-methyl-3-(pyridin-4-yl)thieno[2,3-d]pyridazin-4(5H)-one], the “Human mCl” value [1] is reported as “+ (+: 100-220 μl min^−1 mg^−1)”, the “Rat mCl” value [2] is reported as “++ (++: <100 μl min^−1 mg^−1)” and the IC50 [3] is reported as less than 100 nM.

For `COc1cccc(COc2nn(C)c(=O)c3c(-c4ccncc4)csc23)c1` [Example 61, 7-[(3-methoxybenzyl)oxy]-5-methyl-3-(pyridin-4-yl)thieno[2,3-d]pyridazin-4(5H)-one], the “Human mCl” value [1] was “++ (++: <100 μl min^−1 mg^−1)”, the “Rat mCl” value [2] was “+ (+: 100-220 μl min^−1 mg^−1)” and the IC50 [3] was 100 to 200 nM.

For “3-[4-oxo-7-(pyridin-4-yl)-5-(2,2,2-trifluoroethyl)-4,5-dihydrothieno[2,3-d]pyridazin-3-yl]benzonitrile [Example 127]”, the “Human mCl” value [1] was “++ (++: <100 μl min^−1 mg^−1)”, the “Rat mCl” value [2] was “++ (++: <100 μl min^−1 mg^−1)” and the IC50 [3] was less than 100 nM.

Compound `Cc1cnc(Cl)c(Oc2nn(C)c(=O)c3c(-c4ccncc4)csc23)c1` [Example 90, 7-[(2-chloro-5-methylpyridin-3-yl)oxy]-5-methyl-3-(pyridin-4-yl)thieno[2,3-d]pyridazin-4(5H)-one trifluoroacetate] has an IC50 [3] of less than 100 nM.

With `Cn1nc(-c2ccc3ncoc3c2)c2scc(-c3ccncc3)c2c1=O` [Example 97, 7-(1,3-benzoxazol-6-yl)-5-methyl-3-(pyridin-4-yl)thieno[2,3-d]pyridazin-4(5H)-one] the “Human mCl” value [1] was “++ (++: <100 μl min^−1 mg^−1)”, the “Rat mCl” value [2] was “++ (++: <100 μl min^−1 mg^−1)” and the IC50 [3] was less than 100 nM.

Compound `Cn1nc(-c2cccc(Cl)c2)c2scc(-c3ccncc3)c2c1=O` [Example 105, 7-(3-chlorophenyl)-5-methyl-3-(pyridin-4-yl)thieno[2,3-d]pyridazin-4(5H)-one trifluoroacetate] has an IC50 [3] of 200 to 500 nM.

For `Cn1nc(Oc2cccnc2)c2scc(-c3ccncc3)c2c1=O` [Example 82, 5-methyl-3-(pyridin-4-yl)-7-(pyridin-3-yloxy)thieno[2,3-d]pyridazin-4(5H)-one], the “Human mCl” value [1] was “++ (++: <100 μl min^−1 mg^−1)”, the “Rat mCl” value [2] was “++ (++: <100 μl min^−1 mg^−1)” and the IC50 [3] was 200 to 500 nM.

With `Cn1nc(-c2cccc(O)c2)c2scc(-c3ccncc3)c2c1=O` [Example 107, 7-(3-hydroxyphenyl)-5-methyl-3-(pyridin-4-yl)thieno[2,3-d]pyridazin-4(5H)-one trifluoroacetate (salt)] the IC50 [3] was less than 100 nM.

Work on `COc1cc(OC)cc(-c2nn(C)c(=O)c3c(-c4ccncc4)csc23)c1` [Example 111, 7-(3,5-dimethoxyphenyl)-5-methyl-3-(pyridin-4-yl)thieno[2,3-d]pyridazin-4(5H)-one trifluoroacetate] yielded an IC50 [3] of 100 to 200 nM.

In the case of `COCCn1cc(-c2nn(C)c(=O)c3c(-c4ccncc4)csc23)cn1.O=C(O)C(F)(F)F.O=C(O)C(F)(F)F` [Example 99, 7-[1-(2-methoxyethyl)-1H-pyrazol-4-yl]-5-methyl-3-(pyridin-4-yl)thieno[2,3-d]pyridazin-4(5H)-one bis(trifluoroacetate)], the “Human mCl” value [1] is reported as “++ (++: <100 μl min^−1 mg^−1)”, the “Rat mCl” value [2] is reported as “++ (++: <100 μl min^−1 mg^−1)” and the IC50 [3] is reported as less than 100 nM.

For `COc1cccc(Oc2nn(C)c(=O)c3c(-c4ccncc4)csc23)c1` [Example 85, 7-(3-methoxyphenoxy)-5-methyl-3-(pyridin-4-yl)thieno[2,3-d]pyridazin-4(5H)-one], the “Human mCl” value [1] was “++ (++: <100 μl min^−1 mg^−1)”, the “Rat mCl” value [2] was “++ (++: <100 μl min^−1 mg^−1)” and the IC50 [3] was 100 to 200 nM.

For `Cn1nc(-c2ccccc2F)c2scc(-c3ccncc3)c2c1=O` [Example 115, 7-(2-fluorophenyl)-5-methyl-3-(pyridin-4-yl)thieno[2,3-d]pyridazin-4(5H)-one trifluoroacetate], the IC50 [3] was 200 to 500 nM.

`Cn1nc(-c2cccc(OC(F)(F)F)c2)c2scc(-c3ccncc3)c2c1=O` [Example 112, 5-methyl-3-(pyridin-4-yl)-7-[3-(trifluoromethoxy)phenyl]thieno[2,3-d]pyridazin-4(5H)-one trifluoroacetate] showed an IC50 [3] of 200 to 500 nM.

In the case of `N#CCCn1nc(-c2ccncc2)c2scc(-c3ccncc3)c2c1=O` [Example 140, 3-[4-oxo-3,7-di(pyridin-4-yl)thieno[2,3-d]pyridazin-5(4H)-yl]propanenitrile], the IC50 [3] is reported as 100 to 200 nM.

With `Cn1nc(-c2cccc(F)c2)c2scc(-c3ccncc3)c2c1=O` [Example 116, 7-(3-fluorophenyl)-5-methyl-3-(pyridin-4-yl)thieno[2,3-d]pyridazin-4(5H)-one trifluoroacetate] the IC50 [3] was 200 to 500 nM.

Work on `COc1ccc(-c2nn(C)c(=O)c3c(-c4ccncc4)csc23)cc1OC` [Example 102, 7-(3,4-dimethoxyphenyl)-5-methyl-3-(pyridin-4-yl)thieno[2,3-d]pyridazin-4(5H)-one trifluoroacetate] yielded an IC50 [3] of less than 100 nM.

In the case of `COc1ccccc1-c1nn(C)c(=O)c2c(-c3ccncc3)csc12` [Example 113, 7-(2-methoxyphenyl)-5-methyl-3-(pyridin-4-yl)thieno[2,3-d]pyridazin-4(5H)-one trifluoroacetate], the IC50 [3] is reported as 200 to 500 nM.

With `Cn1nc(-c2cccc(C(F)(F)F)c2)c2scc(-c3ccncc3)c2c1=O` [Example 114, 5-methyl-3-(pyridin-4-yl)-7-[3-(trifluoromethyl)phenyl]thieno[2,3-d]pyridazin-4(5H)-one trifluoroacetate] the IC50 [3] was 100 to 200 nM.

`Cn1ccnc1COc1nn(C)c(=O)c2c(-c3ccncc3)csc12` [Example 56, 5-methyl-7-[(1-methyl-1H-imidazol-2-yl)methoxy]-3-(pyridin-4-yl)thieno[2,3-d]pyridazin-4(5H)-one] showed an IC50 [3] of 200 to 500 nM.

`Cn1nc(-c2ccc(C(F)(F)F)cc2)c2scc(-c3ccncc3)c2c1=O` [Example 117, 5-methyl-3-(pyridin-4-yl)-7-[4-(trifluoromethyl)phenyl]thieno[2,3-d]pyridazin-4(5H)-one trifluoroacetate] showed an IC50 [3] of 100 to 200 nM.

In the case of `Cc1ccc(-c2nn(C)c(=O)c3c(-c4ccncc4)csc23)cc1` [Example 121, 5-methyl-7-(4-methylphenyl)-3-(pyridin-4-yl)thieno[2,3-d]pyridazin-4(5H)-one trifluoroacetate], the IC50 [3] is reported as 100 to 200 nM.

With `Cn1nc(-c2ccnc(F)c2)c2scc(-c3ccncc3)c2c1=O` [Example 104, 7-(2-fluoropyridin-4-yl)-5-methyl-3-(pyridin-4-yl)thieno[2,3-d]pyridazin-4(5H)-one bis(trifluoroacetate)] the IC50 [3] was 100 to 200 nM.

In the case of `Cn1nc(OCc2nc3ccccc3s2)c2scc(-c3ccncc3)c2c1=O` [Example 71, 7-(1,3-benzothiazol-2-ylmethoxy)-5-methyl-3-(pyridin-4-yl)thieno[2,3-d]pyridazin-4(5H)-one trifluoroacetate], the IC50 [3] is reported as less than 100 nM.

Reference: patent US9200005B2, “Inhibitor compounds of phosphodiesterase type 10A” (AbbVie Deutschland GmbH & Co. KG, priority 2013, dated 2015)
